Measurements taken from PMC12206033, “Selective inhibition of TRPV3 channel by natural rosmarinic acid and its analogs for alleviation of skin lesions through downregulation of NF-κB pathway” (The Journal of Biological Chemistry, 2025).

How the values were obtained:
TRPV3 T636A [1] = molecular target: T1, TRPV3 T636A (Homo sapiens, UniProt Q8NET8, T636A); assay: whole-cell patch-clamp of hTRPV3 T636A mutant currents; type: cell-based; details: ROSA 100 μM; 2-APB; read-out: inhibition of macroscopic hTRPV3 T636A currents
T1 construct: expressed in transfected cells; host or cells: HEK293T
T1 sequence (Q8NET8 1-790 T636A): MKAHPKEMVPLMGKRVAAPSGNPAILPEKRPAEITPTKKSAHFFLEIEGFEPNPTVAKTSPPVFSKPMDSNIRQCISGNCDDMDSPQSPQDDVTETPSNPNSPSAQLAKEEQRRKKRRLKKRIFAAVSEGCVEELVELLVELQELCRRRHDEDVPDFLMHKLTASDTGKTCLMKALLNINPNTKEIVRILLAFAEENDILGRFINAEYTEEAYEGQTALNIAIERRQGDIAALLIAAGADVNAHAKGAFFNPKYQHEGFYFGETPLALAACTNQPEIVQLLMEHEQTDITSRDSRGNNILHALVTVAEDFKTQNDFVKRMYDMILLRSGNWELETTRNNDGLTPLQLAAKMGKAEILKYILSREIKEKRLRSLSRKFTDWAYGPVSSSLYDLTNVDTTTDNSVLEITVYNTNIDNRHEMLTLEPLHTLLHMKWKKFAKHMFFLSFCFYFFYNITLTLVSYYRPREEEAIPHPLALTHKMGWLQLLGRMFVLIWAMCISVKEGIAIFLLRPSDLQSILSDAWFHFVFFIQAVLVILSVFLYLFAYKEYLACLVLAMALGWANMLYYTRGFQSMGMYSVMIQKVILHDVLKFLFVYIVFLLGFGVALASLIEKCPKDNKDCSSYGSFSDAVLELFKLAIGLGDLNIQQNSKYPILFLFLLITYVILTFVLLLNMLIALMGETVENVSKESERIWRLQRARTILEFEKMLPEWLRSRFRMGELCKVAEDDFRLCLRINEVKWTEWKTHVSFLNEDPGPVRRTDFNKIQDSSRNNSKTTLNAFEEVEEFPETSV
Experimental: (§1) HEK293T cell line was obtained from the Cell Resource Center, Peking Union Medical College. HEK293T cells were maintained in Dulbecco’s modified Eagle’s medium (DMEM, Gibco) supplemented with 10% fetal bovine serum at 37 °C with 5% CO2. […] The next day, determine the plasmid transfection status by observing green fluorescence based on expression of enhanced GFP as an indicator. […] When conducting experiments on HEK293T cells transfected with G573S point mutant TRPV3 plasmid, we replaced culture medium with or without compounds after 4 h of transfection and then observed green fluorescence of HEK293T cell after 10 h. As for the relative fluorescence intensity, we convert the image to 8 bit grayscale using ImageJ (Https://imagej.net/software/fiji/downloads) and set an appropriate threshold value to reduce background noise and enhance the image contrast.
(§2) All patch-clamp recordings were conducted 16 to 24 h after transfection using an EPC10 amplifier powered by PatchMaster software (HEKA) (https://www.heka.com/downloads/downloads_main.html#down_patchmaster) at room temperature. […] Currents were recorded at a potential ramp from −100 mV to +100 mV for 1000 ms with 1000-ms intervals (for whole-cell recordings) or a persistent potential of −60 mV (inside-out patch recordings). […]

TRPV3 T636A [2] = molecular target: T1, TRPV3 T636A; assay: single-channel inside-out patch recordings of TRPV3 T636A mutant; type: cell-based; details: ROSA 100 μM co-applied with 2-APB 50 μM; n = 4
Experimental: as §1, §2

[3] = test system: TRPV3, IL-6, TNF-α, and p-P65 protein expressions; assay: Western blot of TRPV3 and NF-κB pathway proteins in mouse ear tissues; type: in vivo; details: topical ROSA 0.1, 1 and 10 mM; mouse ear tissues; day 5
Experimental: Skin sensitizer Car was dissolved in saline solution containing 30% ethanol. The dorsal skin or ear of mice was swabbed with 3% Car for four consecutive days. To investigate the effects of ROSA, it was diluted to concentration of 0.1/1/10 mM with saline and topically applied on the ear and dorsal skin once a day for 4 days. The control group only received swabs with the solvent.
Skin or ear skin tissues were homogenized in radioimmunoprecipitation assay buffer (Thermo Fisher Scientific) containing protease inhibitors at a ratio of 100:1 per 10 mg tissue and centrifuged at 15,000 rpm for 15 min. The protein concentration was quantified using a bicinchoninic acid kit (Thermo Fisher Scientific), followed by SDS-PAGE for Western blot analysis. Protein transfer was performed at 150 mA for 90 min, and the transferred membranes (Millipore) were incubated with primary antibodies (TRPV3 antibody, 1:1000, TNF-α antibody, 1:1000, IL-6 antibody, 1:2500, P65 antibody, 1:1000 and p-P65 antibody, 1:1000) in 5% skim milk (Becton, Dickinson and Company). […] Images were quantified using the Image Lab software (https://www.bio-rad.com/zh-cn/product/image-lab-software?ID=KRE6P5E8Z).

O=C(/C=C/c1ccc(O)c(O)c1)O[C@H](Cc1ccc(O)c(O)c1)C(=O)O [ROSA, rosmarinic acid]
inhibition at 100 µM (TRPV3 T636A [1]): 14.7%
single-channel open probability, T636A mutant (TRPV3 T636A [2]): 0.67
protein expressions of TRPV3, IL-6, TNF-α, and p-P65 induced by Car [3]: downregulated the upregulation
